Among the data in patent publication US20230399411A1, “SPECIFIC ANTIBODY-DRUG-CONJUGATES (ADCS) WITH KSP INHIBITORS AND ANTI-CD123-ANTIBODIES” (Bayer Pharma Aktiengesellschaft, priority 2016, published 2023) are IC50, Papp B→A and efflux ratio values, retold here.

Each structure is given as a SMILES string.

In data set [1] the test system is NCI-H292 cells. Briefly: MTT assay, cytotoxicity of metabolites. The format is cell-based. The note with it: Homo sapiens, 96 h incubation. As to the method:
The analysis of the cytotoxic effects of the anti-CD123 ADCs and the corresponding metabolites was carried out with various cell lines:
NCI-H292: human mucoepidermoid lung carcinoma cells, ATCC-CRL-1848, standard medium: RPMI 1640 (Biochrom; #FG1215, stab. glutamine)+10% FCS (Biochrom; #S0415).
The cells were cultivated according to the standard method using the growth media listed under C-1. The test is carried out by detaching the cells with a solution of Accutase in PBS (Biochrom AG #L2143; in case of adherent cell), pelleting, resuspending in culture medium, counting and sowing into a 96-well culture plate with white bottom (Costar #3610) (NCI H292: 2500 cells/well; MOLM-13: 2000 cells/well; THP-1: 8000 cells/well; NB4: 7000 cells/well; KG-1: 5000 cells/well, MV-4-11: 5000 cells/well in a total volume of 100 μl). The cells were then incubated in an incubator at 37° C. and 5% carbon dioxide. After 6 h or 48 h (adherent cells) the medium was replaced. […] After 96 h, the cell proliferation was detected using the MTT assay (ATCC, Manassas, Virginia, USA, catalogue No. 30-1010K). […] The dye formed was detected at 570 nm (Infinite M1000 pro, Tecan). The measured data were used to calculate the IC50 of the growth inhibition using the DRC (dose response curve). […]
In general terms: Formazan colour is commonly taken as a measure of viable cells.

A short description of data set [2]: Caco-2 flux assay for cell permeability. It is filed as in vitro ADME. The note with it: human; for Papp B→A at 2 h: Caco-2, 2 hours. The protocol:
The cell permeability of a substance can be investigated by means of in vitro testing in a flux assay using Caco-2 cells [M. D. Troutman and D. R. Thakker, Pharm. Res. 20 (8), 1210-1224 (2003)]. For this purpose, the cells were cultured for 15-16 days on 24-well filter plates. For the determination of permeation, the respective test substance was applied in a HEPES buffer to the cells either apically (A) or basally (B) and incubated for 2 hours. After 0 hours and after 2 hours, samples were taken from the cis and trans compartments. The samples were separated by HPLC (Agilent 1200, Böblingen, Germany) using reverse phase columns. The HPLC system was coupled via a Turbo Ion Spray Interface to a Triple Quadropol mass spectrometer API 4000 (AB SCIEX Deutschland GmbH, Darmstadt, Germany). The permeability was evaluated on the basis of a Papp value, which was calculated using the formula published by Schwab et al. [D. Schwab et al., J. Med. Chem. 46, 1716-1725 (2003)]. […] Of critical importance for toxophores which are released intracellularly is the permeability from B to A [Papp (B-A)] and the ratio of Papp (B-A) to Papp (A-B) (efflux ratio): the lower this permeability, the slower the active and passive transport processes of the substance through the monolayer of Caco-2 cells.
Background: Passage across Caco-2 layers is used to estimate intestinal permeability.

Usually IC50 stands for the concentration at which inhibition is half-maximal. The Papp B→A is the apparent permeability from the basolateral to the apical side of a cell layer. For the compound `CC(C)(C)[C@H](c1cc(-c2cc(F)ccc2F)cn1Cc1ccccc1)N(CCCN)C(=O)CSC[C@H](NC(=O)CCOCCOCCOCCOCCNC(=O)CNC(=O)CC(SC[C@H](N)C(=O)O)C(=O)O)C(=O)O.O=C(O)C(F)(F)F.O=C(O)C(F)(F)F` (stereo partly drawn) [Example M20, (1R,4R,27R,33R)-1-Amino-32-(3-aminopropyl)-33-[1-benzyl-4-(2,5-difluorophenyl)-1H-pyrrol-2-yl]-34,34-dimethyl-6,9,25,31-tetraoxo-13,16,19,22-tetraoxa-3,29-dithia-7,10,26,32-tetraazapentatriacontane-1,4,27-tricarboxylic acid/trifluoroacetic acid (1:2)], the IC50 in data set [1] came to 149 nM. In data set [2], this compound gave a Papp B→A at 2 h of 0.089 ×10⁻⁶ cm/s.
In general, efflux ratio refers to the permeability from basolateral to apical divided by that in the opposite direction, in the common usage. The compound `CC(C)(C)[C@H](c1cc(-c2cc(F)ccc2F)cn1Cc1ccccc1)N(CCCN)C(=O)CSC[C@H](NC(=O)CCOCCOCCOCCOCCNC(=O)CNC(=O)C(CC(=O)O)SC[C@H](N)C(=O)O)C(=O)O.O=C(O)C(F)(F)F.O=C(O)C(F)(F)F` (stereo partly drawn) [Example M21, (2R,24S,27R)-27-Amino-2-[({2-[(3-aminopropyl){(1R)-1-[1-benzyl-4-(2,5-difluorophenyl)-1H-pyrrol-2-yl]-2,2-dimethylpropyl}amino]-2-oxoethyl}sulphanyl)methyl]-24-(carboxymethyl)-4,20,23-trioxo-7,10,13,16-tetraoxa-25-thia-3,19,22-triazaoctacosane-1,28-dioic acid/trifluoroacetic acid (1:2)] returned a Papp B→A at 2 h in data set [2] of 0.05 ×10⁻⁶ cm/s. Further, in data set [2] (Caco-2, Papp (B-A) to Papp (A-B)), the efflux ratio at 2 h is 1.5.
